# Results reported in paper PMC12518693, “Potent Fluorescent Probe for Target‐Engagement Studies of Allosteric Pyruvate Kinase Modulators” (Angewandte Chemie (International Ed. in English), 2025).
# Marks after values point to notes of the source that are not given here.
# Key:
# PKL [1] = target: T1, PKL (Homo sapiens, UniProt P30613); test: HepG2 PKM2 KO cell lysate PKL activity assay; conditions: HepG2 PKM2 KO cells, 48 h, mean ± SE n=3
# Procedure: These predominantly express PKL.
# HepG2 PKM2 KO cells (Synthego) were plated in 6 well plates at cell densities of 2 x 10^5 cells/well and incubated for 24 h at 37 °C and 5% CO2. Compounds were added to the cells in different concentrations (0.1, 1, 10 µM) and the cells were further incubated for 48 h. The control cells received DMSO as vehicle.
# Cells were washed with PBS, lysed on ice with 200 µL/well PK assay buffer. […] Pyruvate kinase (PK) activity of the cell lysates (10 µg total protein) was analyzed by using the PK assay kit from abcam (ab83432) according to manufacturer´s instructions. The PKL activity in the cell lysates treated with the compounds was expressed as a percentage of the PK activity in the vehicle.
# PKM2 [2] = target: T2, PKM2 (Homo sapiens, UniProt P14618); test: Recombinant PKM2 activity assay (Kinase-Glo MAX); format: biochemical; set-up: made in house; conditions: for PKM2 E max: recombinant PKM2; for EC50: recombinant PKM2 10 nM, 15 min pre-incubation, PEP 0.1 mM, ADP 0.2 mM
# T2 sequence (P14618 whole entry): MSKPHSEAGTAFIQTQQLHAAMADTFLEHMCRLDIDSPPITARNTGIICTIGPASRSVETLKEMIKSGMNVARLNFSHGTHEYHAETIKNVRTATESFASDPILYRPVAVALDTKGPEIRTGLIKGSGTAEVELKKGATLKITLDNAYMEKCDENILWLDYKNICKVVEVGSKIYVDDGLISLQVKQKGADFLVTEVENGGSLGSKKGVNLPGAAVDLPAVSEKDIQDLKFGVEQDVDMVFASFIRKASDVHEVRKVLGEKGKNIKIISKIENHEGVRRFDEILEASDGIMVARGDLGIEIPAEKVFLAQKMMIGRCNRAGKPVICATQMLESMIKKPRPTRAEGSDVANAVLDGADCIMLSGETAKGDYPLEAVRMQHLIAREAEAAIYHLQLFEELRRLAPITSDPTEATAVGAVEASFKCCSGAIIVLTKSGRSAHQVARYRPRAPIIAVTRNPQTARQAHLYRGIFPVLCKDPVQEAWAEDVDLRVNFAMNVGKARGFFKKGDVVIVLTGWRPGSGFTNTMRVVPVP
# Procedure: As these compounds were binding to a known allosteric site on PK, the effects of ligands I–IV on the enzymatic activities of PKL and PKM2 were determined (Figure S2). The two isozymes were incubated with increasing concentrations of compounds before the addition of substrates PEP and adenosine diphosphate (ADP), and the reactions were monitored using a Kinase‐Glo MAX assay.
# (§1) Figure S2. Effects of ligands I-IV on recombinant PK activities. PKL or PKM2 (10 nM) were pre-incubated with the compounds (0-100 µM) for 15 min following the addition of PEP (0.1 mM) and ADP (0.2 mM). The reactions were terminated by the addition of Kinase Glo-MAX reagent after 10 min, and the luminescence from each reaction was quantified using a plate reader. The activity values are expressed as a percentage of PK activity of the DMSO control. The potencies were calculated by best fit of the Hill equation to the luminescence data.^[2] (A) PKL titrations. (B) PKM2 titrations. Error bars represent the ±SE of replicates (n = 3).
# PKL [3] = target: T1, PKL; test: Surface plasmon resonance, PKL; conditions: for koff: read-out: k off SPR (PKL); for kon: read-out: k on SPR (PKL)
# Procedure: The surface was washed with 10 mM NaOH, 1M NaCl followed by immobilization of protein before subsequent deactivation by 1 M ethanolamine. Immobilization levels were typically 12000-16000 RU. The reference spot was treated as described, omitting the injection of PKL. Compound concentration series was injected over the immobilized protein in increasing concentrations using multi cycle (MCK) or single cycle kinetics (SCK) in running buffer (10 mM HEPES, 150 mM NaCl, 0.05% Tween20, 0.3% DMSO, pH 7.4). A 1:1 Langmuir interaction model is fitted to the experimental traces, enabling determination of kon, koff and Kd.
# PKL [4] = target: T1, PKL; test: Recombinant PKL activity assay (Kinase-Glo MAX); format: biochemical; set-up: co-crystallisation of full-length PKL (including the B-domain); 8xHis (TEV-cleavable) (N, cleaved yes); made in house; host or cells: E. coli T7 Express (NEB), pExp-NHis plasmid; conditions: for EC50: recombinant PKL 10 nM, 15 min pre-incubation, PEP 0.1 mM, ADP 0.2 mM; for PKL E max: recombinant PKL, above 100% activation, below 100% inhibition
# Procedure: The two isozymes were incubated with increasing concentrations of compounds before the addition of substrates PEP and adenosine diphosphate (ADP), and the reactions were monitored using a Kinase‐Glo MAX assay.
# as §1, with “Effects of ligands I-IV on recombinant PK activities. PKL or PKM2 (10 nM) were pre-incubated with the compounds (0-100 µM) for 15 min following the addition of PEP (0.1 mM) and ADP (0.2 mM).” left out
# The reaction mixture contained 0.2 mM ADP, 0.1 mM PEP, 5 nM PKL, 1% DMSO, and test compounds at concentrations ranging from 0 to 1 mM across 12 titration points. Prior to substrate addition, PKL and test compounds were pre-incubated for 15 minutes.
# After the reaction, 5 µL of Kinase-Glo Max reagent was added to each well. […] For each data set, luminescence from the DMSO control was set as 100% activity, and luminescence from the protein blank (no PKL) as 0% activity. Percentage activity (E%) was calculated using the equation: […]
# Titration data was fitted to the Hill equation in Origin to determine EC₅₀ values.
# PKM2 [5] = target: T2, PKM2; test: Surface plasmon resonance, PKM2; conditions: for K D (SPR, PKM2): 20 °C
# Solubility = format: physicochemical
# PKLwt = PKLwt (Homo sapiens, UniProt P30613); test: Fluorescence indicator displacement (FID) competition assay
# Sequence of PKLwt (P30613 1-543 isoform P30613-2): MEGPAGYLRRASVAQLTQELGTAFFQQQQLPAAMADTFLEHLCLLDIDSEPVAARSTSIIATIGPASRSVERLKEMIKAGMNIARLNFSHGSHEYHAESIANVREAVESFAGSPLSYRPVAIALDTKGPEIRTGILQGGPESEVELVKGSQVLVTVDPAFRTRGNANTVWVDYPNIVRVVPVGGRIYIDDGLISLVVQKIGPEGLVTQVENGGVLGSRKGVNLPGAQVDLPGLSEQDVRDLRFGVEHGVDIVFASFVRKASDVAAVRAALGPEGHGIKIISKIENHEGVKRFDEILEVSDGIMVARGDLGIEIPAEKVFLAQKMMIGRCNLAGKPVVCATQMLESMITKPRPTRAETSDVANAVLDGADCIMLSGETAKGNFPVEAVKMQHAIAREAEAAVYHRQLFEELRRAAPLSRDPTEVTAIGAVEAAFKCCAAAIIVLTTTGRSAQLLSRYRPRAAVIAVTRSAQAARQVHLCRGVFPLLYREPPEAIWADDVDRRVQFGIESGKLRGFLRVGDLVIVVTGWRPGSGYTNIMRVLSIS
# Procedure: Additionally, we performed fluorescence competition assays with these competitors against IV, using recombinant PKLwt (Figure 6b). […] A combined 2x PKL-tracer IV solution was prepared in Tris-HCl buffer containing 1% DMSO, with final concentrations of 0.2 µM PKL and 0.1 µM tracer IV.
# PKLNluc = PKLNluc (Homo sapiens, UniProt P30613); test: Live-cell NanoBRET assay in HEK293 cells; format: cell-based; set-up: host or cells: HEK293, transient transfection; conditions: 20 nM tracer IV
# Sequence of PKLNluc (P30613 1-543 isoform P30613-2): as above
# Procedure: To investigate the intracellular interaction of tracer IV with PKLNluc, we prepared a mammalian expression construct, fusing Nluc to the N‐terminus of PKL. […] As a negative control for NanoBRET experiments, a construct expressing Nluc alone (without PKL) was also prepared.
# Additionally, cell viability assays were conducted on cells transfected with either PKLNluc or Nluc plasmids and incubated with tracer IV (Figure S4b,c).
# HEK293 cells were passed one day before transfection. The concentration of cells was adjusted to 2x10^5 cells/ml in Opti-MEM™ without phenol red (Invitrogen) supplemented with 1% FBS (Hyclone). Cells (4x10^6) were reversed transfected with 1 µg of PKLNluc plasmid or 1 µg Nluc plasmid and 9 µg of carrier DNA (Promega) using 30 µL of Fugene HD transfection reagent (Promega). […] Work solutions (100x) of tracer IV were prepared from DMSO stocks and further diluted to 20x concentrations with Tracer buffer (Promega). Twenty-five hours after transfection, the cells were treated with 5 µL/well of each of 20x concentrations of the tracer (final concentrations in the assay were in the range 0.001-1 µM, depending on the experiment). Thereafter, 10 µL of 10x solutions of competitors (diluted in Opti-MEM™ medium from stocks of 100x prepared in DMSO) were added to some sets of cells, while the other set received only Opti-MEM™ containing 1% DMSO. The cells were incubated for 2 h at 37°C (5% CO2). […] For each sample well, BRET ratios were calculated using the following formula:
# BRET ratio mBU= AcceptorSDonorS-AcceptorNTDonorNT
# Where AcceptorS is the luminescence intensity of the sample well at 550 nm, DonorS is the luminescence of the sample well at 450 nm, and AcceptorNT and DonorNT are the luminescence of the no-tracer control at 550 nm and 450 nm respectively.
# [6] = K D SPR (PKL), 20 °C, mean ± SE n=3
# T1 sequence (P30613 1-543 isoform P30613-2): as above
compound,measurement,setting,value
"O=c1c2ccc(S(=O)(=O)c3ccccc3)cc2cnn1Cc1ccccc1 [Compound I, 2-Benzyl-6-(phenylsulfonyl)phthalazin-1(2H)-one, reference compound]",PKL activities (% of vehicle) 0.1 µM,PKL [1],115 ± 2 % of vehicle
same,PKL activities (% of vehicle) 1 µM,PKL [1],189 ± 3 % of vehicle
same,PKL activities (% of vehicle) 10 µM,PKL [1],330 ± 3 % of vehicle
same,PKM2 E max,PKM2 [2],596 % of vehicle
same,EC50,PKM2 [2],25 nM
same,Kd,PKL [3]; [6],133 ± 8 nM
same,koff,PKL [3],0.00533 s⁻¹
same,kon,PKL [3],41200 M⁻¹ s⁻¹
same,EC50,PKL [4],15 nM
same,PKL E max,PKL [4],162 % vehicle
same,Kd,PKM2 [5],33 ± 1 nM
same,koff,PKM2 [5]; read-out: k off SPR (PKM2),< 0.00055 s⁻¹
same,kon,PKM2 [5]; read-out: k on SPR (PKM2),4500 M⁻¹ s⁻¹
"CN(C)c1ccc(S(=O)(=O)c2ccc3c(=O)n(Cc4ccccc4)ncc3c2)c2nonc12 [Compound II, 2-Benzyl-6-((7-(dimethylamino)benzo[c][1,2,5]oxadiazol-4-yl)sulfonyl)phthalazin-1(2H)-one]",solubility,Solubility,poor
same,PKL activities (% of vehicle) 0.1 µM,PKL [1],112 ± 1 % of vehicle
same,PKL activities (% of vehicle) 1 µM,PKL [1],126 ± 1 % of vehicle
same,PKL activities (% of vehicle) 10 µM,PKL [1],133 ± 6 % of vehicle
same,PKM2 E max,PKM2 [2],572 % of vehicle
same,Kd,PKL [3]; [6],36200 ± 289 nM
same,weaker PKL affinity relative to compound I,PKL [3]; SPR K D ratio,250 fold
same,koff,PKL [3],0.00833 s⁻¹
same,kon,PKL [3],167 M⁻¹ s⁻¹
same,EC50,PKL [4],700 nM
same,PKL E max,PKL [4],120 % vehicle
same,Kd,PKM2 [5],> 100000 nM
same,"K D (SPR, PKM2)",PKM2 [5],no detectable binding
"Nc1cccc(S(=O)(=O)N2CCCN(S(=O)(=O)c3ccc4c(c3)OCCO4)CC2)c1 [DASA-58, reference compound]",Kd,"PKL [3]; K D (SPR, PKL), 20 °C, recombinant PKL",170 nM
same,EC50,PKLwt,394 nM
same,Kd,PKLwt,179 nM
same,EC50,"PKLNluc; 2 h 37 °C, live HEK293, Figure 6a, read-out: EC50 displacement of tracer IV",512 nM
same,Kd,"PKLNluc; Figure 6, read-out: K D (cell), Cheng–Prusoff corrected",245 nM
"CN(C)c1ccc(S(=O)(=O)c2ccc3c(=O)n(CC(C)(C)C)ncc3c2)c2nonc12 [Compound III, 6-((7-(Dimethylamino)benzo[c][1,2,5]oxadiazol-4-yl)sulfonyl)-2-neopentylphthalazin-1(2H)-one]",solubility,Solubility,poor
same,PKM2 E max,PKM2 [2],323 % of vehicle
same,EC50,PKM2 [2],> 10000 nM
same,K D SPR (PKL),"PKL [3]; 20 °C, mean ± SE n=3",no binding
same,Kd,PKL [3]; [6],> 100000 nM
same,effect on PKL at higher concentrations,PKL [4]; >50 µM,weak inhibition
same,EC50,PKL [4],86000 nM
same,PKL E max,PKL [4],50 ^a) % vehicle
same,Kd,PKM2 [5],> 100000 nM
same,"K D (SPR, PKM2)",PKM2 [5],no detectable binding
